Laboratory results reported in patent publication US4426524A, “Heterocyclic substituted benzyl alcohol, insecticidal ester derivatives, and intermediates” (priority 1982, dated 1984).

Key:
cabbage looper [1] = assay: Topical application, cabbage looper; format: in vivo, Tricoplusia ni; settings: CL
Procedure: (§1) Topical Application: The compounds of this invention were tested for insecticidal activity against various insect species selected from southern armyworm (Spodoptera eridania), Mexican bean beetle, (Epilachna varivestis), milkweed bug (Oncopeltus fasciatus), and cabbage looper (Tricoplusia ni) by applying to the second or third dorsal thoracic segment of each larvae a one microliter droplet containing 5 mg/mL of test compound in acetone (5000 ng/insect). The test was allowed to stand 24 hours after application and was then read to determine the percent kill.
(§2) To determine the LD50 of the compounds, the topical application test was repeated by applying various amounts of toxicant. Also included among the species tested against for this determination were tobacco budworm (Heliothis virescens), beet armyworm (Spodoptera exigua), and boll weevil (Anthonomus grandis).

southern armyworm [2] = assay: Topical application, southern armyworm; format: in vivo, Spodoptera eridania; settings: SAW; for Topical % Kill @ 5000 ng/insect: 24 hours
Procedure: as §1, §2

twospotted spider mite = assay: Foliar application, twospotted spider mite; format: in vivo; settings: Tetranychus urticae, TSM, foliar, 48 hours, read-out: Foliar % Kill (ppm)
Procedure: (§3) Foliar Application: The activity of some of the compounds of the invention against various test species selected from pea aphid (Acyrthosiphon pisum), twospotted spider mite (Tetranychus urticae), southern armyworm (Spodoptera eridania), Mexican bean beetle (Epilachna varivestis), and cabbage looper (Tricoplusia ni) was determined by foliar application of the test compound. The test materials were formulated as aqueous solutions containing 10% acetone and 0.25% acetylphenoxypolyethoxyethanol. Activity against pea aphid was determined on English fava bean plants the leaves of which were sprayed to runoff with various concentrations of test solution prior to infestation with adult aphids. Activity against twospotted spider mite was evaluated on pinto bean plants whose leaves were sprayed to runoff with various concentrations of test solution after infestation with adult mites. Activity against the remaining species was evaluated on pinto bean plants whose leaves were sprayed to runoff with various concentrations of test solution before infestation with the appropriate immature insects. Mortality was read approximately 48 hours after treatment.

beet armyworm = assay: Topical application, beet armyworm; format: in vivo, Spodoptera exigua; settings: BAW
Procedure: as §1, §2

Mexican bean beetle [3] = assay: Topical application, Mexican bean beetle; format: in vivo, Epilachna varivestis; settings: MBB; for Topical % Kill @ 5000 ng/insect: 24 hours
Procedure: as §1, §2

milkweed bug [4] = assay: Topical application, milkweed bug; format: in vivo, Oncopeltus fasciatus; settings: MWB; for Topical % Kill @ 5000 ng/insect: 24 hours
Procedure: as §1, §2

pea aphid = assay: Foliar application, pea aphid; format: in vivo; settings: Acyrthosiphon pisum, PA, foliar, 48 hours, read-out: Foliar % Kill (ppm)
Procedure: as §3

tobacco budworm = assay: Topical application, tobacco budworm; format: in vivo, Heliothis virescens; settings: TBW
Procedure: as §1, §2

milkweed bug [5] = assay: Foliar application, milkweed bug; format: in vivo; settings: Oncopeltus fasciatus, MWB, 48 hours, read-out: Foliar % Kill (ppm)
boll weevil = assay: Topical application, boll weevil; format: in vivo, Anthonomus grandis; settings: BW
Procedure: as §1, §2

cabbage looper [6] = assay: Foliar application, cabbage looper; format: in vivo, Tricoplusia ni; settings: Trichoplusia ni, CL, 48 hours, read-out: Foliar % Kill (ppm)
Procedure: as §3

southern armyworm [7] = assay: Foliar application, southern armyworm; format: in vivo; settings: Spodoptera eridania, SAW, foliar, 48 hours, read-out: Foliar % Kill (ppm)
Procedure: as §3

Mexican bean beetle [8] = assay: Foliar application, Mexican bean beetle; format: in vivo; settings: Epilachna varivestis, MBB, foliar, 48 hours, read-out: Foliar % Kill (ppm)
Procedure: as §3

SMILES | Topical LD50 (cabbage looper [1]) [ng/insect] | Topical LD50 (southern armyworm [2]) [ng/insect] | Topical % Kill @ 5000 ng/insect (southern armyworm [2]) [%] | mortality at 500 ppm (twospotted spider mite) [%] | Topical LD50 (Mexican bean beetle [3]) [ng/insect] | Topical % Kill @ 5000 ng/insect (Mexican bean beetle [3]) [%] | Topical LD50 (milkweed bug [4]) [ng/insect] | Topical % Kill @ 5000 ng/insect (milkweed bug [4]) [%] | mortality at 500 ppm (pea aphid) [%] | Topical LD50 (tobacco budworm) [ng/insect] | mortality at 512 ppm (pea aphid) [%] | mortality at 512 ppm (southern armyworm [7]) [%] | also measured
CC1(C)[C@H](C=C(Cl)Cl)[C@@H]1C(=O)OCc1cccc(-c2ccsc2)c1 (relative stereo) [d, 3-(3-thienyl)phenylmethyl cis-3-(2,2-dichloroethenyl)-2,2-dimethylcyclopropanecarboxylate] | 2408 | 57 | 100 | 100 | 73 | 100 | 1137 | 95 | 100 |  |  |  | Topical LD50 (beet armyworm): 3010 ng/insect
Cc1c(COC(=O)[C@H]2[C@@H](C=C(Cl)C(F)(F)F)C2(C)C)cccc1-c1cccs1 (relative stereo) [e, [2-methyl-3-(2-thienyl)phenyl]-methyl cis-3-(2-chloro-3,3,3-trifluoro-1-propenyl)-2,2-dimethylcyclopropanecarboxylate] | 74 | 23 | 100 |  | 7 | 100 | 72 | 100 |  | 43 | 100 | 100 | mortality at 512 ppm (milkweed bug [5]): 100%; mortality at 512 ppm (twospotted spider mite): 100%; Topical LD50 (boll weevil): 11 ng/insect; mortality at 24 ppm (cabbage looper [6]; 24 ppm): 95%
Cc1c(COC(=O)[C@H]2[C@H](C=C(Cl)Cl)C2(C)C)cccc1-c1cccs1 (relative stereo) [f, [2-methyl-3-(2-thienyl)phenyl]methyl trans-3-(2,2-dichloroethenyl)-2,2-dimethylcyclopropanecarboxylate] |  | 155 |  |  |  |  | 238 | 100 |  |  | 100 | 100 | mortality at 512 ppm (twospotted spider mite): 71%; mortality at 120 ppm (cabbage looper [6]; 120 ppm): 100%; mortality at 512 ppm (Mexican bean beetle [8]): 100%
Cc1c(COC(=O)[C@H]2[C@@H](C=C(Cl)Cl)C2(C)C)cccc1-c1cccs1 (relative stereo) [g, [2-methyl-3-(2-thienyl)phenyl]methyl cis-3-(2,2-dichloroethenyl)-2,2-dimethylcyclopropanecarboxylate] | 0.5 | 51 | 100 |  | 8 |  | 234 | 100 |  | 107 | 100 | 100 | mortality at 64 ppm (twospotted spider mite; 64 ppm): 0%; Topical LD50 (boll weevil): 21 ng/insect; mortality at 80 ppm (cabbage looper [6]; 80 ppm): 100%; mortality at 512 ppm (Mexican bean beetle [8]): 100%
Cc1c(COC(=O)[C@H]2[C@@H](C=C(Br)Br)C2(C)C)cccc1-c1cccs1 (relative stereo) [i, [2-methyl-3-(2-thienyl)phenyl]-methyl cis-3-(2,2-dibromoethenyl)-2,2-dimethylcyclopropanecarboxylate] | 371 | 55 | 100 | 90 | 20 | 100 | 132 | 100 | 100 | 177 |  |  | mortality at 32 ppm (cabbage looper [6]; 32 ppm): 70%; mortality at 32 ppm (Mexican bean beetle [8]; 32 ppm): 90%; mortality at 16 ppm (southern armyworm [7]; 16 ppm): 95%
Cc1c(COC(=O)[C@H]2[C@@H](C=C(Cl)C(F)(F)F)C2(C)C)cccc1-c1ccco1 (relative stereo) [m, [3-(2-furanyl)-2-methylphenyl]methyl cis-3-(2-chloro-3,3,3-trifluoro-1-propenyl)-2,2-dimethylcyclopropanecarboxylate] | 149 | 56 | 100 |  | 43 | 100 | 286 | 100 | 100 | 46 |  |  | mortality at 16 ppm (twospotted spider mite): 0%; mortality at 64 ppm (Mexican bean beetle [8]): 75%; mortality at 500 ppm (southern armyworm [7]): 100%
Cc1c(COC(=O)[C@H]2[C@@H](C=C(Cl)Cl)C2(C)C)cccc1-c1ccco1 (relative stereo) [n, [3-(2-furanyl)-2-methylphenyl]methyl cis-3-(2,2-dichloroethenyl)-2,2-dimethylcyclopropanecarboxylate] | 341 | 73 |  |  | 72 | 100 | 1140 | 100 |  | 92 |  |  | mortality at 16 ppm (twospotted spider mite): 0%; mortality at 64 ppm (Mexican bean beetle [8]): 40%; mortality at 64 ppm (pea aphid; 64 ppm): 100%; mortality at 500 ppm (southern armyworm [7]): 100%
Cc1c(COC(=O)[C@@H]2[C@H](C=C(Cl)Cl)C2(C)C)cccc1-c1cccs1 [h, [2-methyl-3-(2-thienyl)phenyl]-methyl 1R-cis-3-(2,2-dichloroethenyl)-2,2-dimethylcyclopropanecarboxylate] | 136 | 22 |  | 100 | 9 | 100 | 64 | 100 | 100 | 38 |  |  | mortality at 16 ppm (cabbage looper [6]; 16 ppm): 90%; mortality at 16 ppm (Mexican bean beetle [8]; 16 ppm): 95%; mortality at 6.5 ppm (southern armyworm [7]; 6.5 ppm): 100%
